These results are taken from US20230257435A1, “Wound Healing Composition and Uses Thereof” (AGENCY FOR SCIENCE, TECHNOLOGY AND RESEARCH, priority 2020, published 2023).

The test system of test [1] is keratinocytes and dermal fibroblasts. As to the kind of experiment: In vitro scratch wound-healing assay. Type of test: cell-based, human and mouse. On the procedure: (§1) A confluent monolayer of control and Agrin depleted cells in a 6-well plate was subjected to a unidirectional scratch using a 20 μl pipette tip. This was followed by washing with 1×PBS at room temperature and incubation in complete culture media at 37° C. and 5% CO2 with or without sAgrin used as indicated. Phase contrast images of the wound area were taken periodically at the indicated time-points. For some wound-healing migration assays, keratinocytes were cultured on either soft or stiff substrates within a stencil barrier (Nalge Nunc., Inc) for 18 h. Upon removal of the barrier, the cells were allowed to migrate and imaged using an Axiovert 200 inverted microscope at indicated time-points.

The next test concerns mouse skin explants. Briefly: Mouse skin explant assay (keratinocyte outgrowth). Type of test: cell-based. The settings on record: soft matrix with 20 μg/ml sAgrin; MMP408 5 nM, 5 days. As to the method: Three days old ICR strain mouse pups were sacrificed and the hind skin on either side of the midline in the shoulder region was washed in 70% ethanol and excised using scalpel. The excised skin was washed in 70% ethanol and placed (dermis side down) on the pre-made gel substrates of defined stiffness, either in the absence or presence of 20 μg/ml sAgrin. The explants were allowed to adhere for 2 h before adding the keratinocyte culture medium (DMEM) containing 300 μM Ca^2+ as described previously^31. The keratinocyte outgrowth and the skin tissues regularly imaged under an Axiovert-200 inverted microscope and were subsequently fixed in 4% paraformaldehyde and immunostained for Keratin 17 antibody.
Tissue culture plates were coated with Col-T-gel (Fischer Scientific) of stiffness ranging from 0.8 KPa (soft) to 30 KPa (stiff) as per manufacturer recommendations and allowed to solidify for 40 min at 37° C. inside tissue culture incubators. Some experiments were performed with cells seeded on the poly-hydrogel plates of defined stiffness: 0.2 kPa and 16 kPa soft and hard polyhydrogels, respectively (CytoSoft, Advanced Biomatrix, Inc.,). The determination of stiffness of silicone substrates were done by the manufacturer as per previously published protocols. For certain experiments, indicated amounts of sAgrin was incorporated into the 0.8 KPa collagen gels before gelation process. Upon gelation, trypsinized cells or excised mouse skin explants were plated onto the gels of different stiffness either alone or containing sAgrin. The cells/tissues were incubated under standard culture condition with 500 μl recommended culture medium for the indicated days. The crossbow shaped micropatterns with fibronectin coated islands were generated by microlithography on a 19.5×19.5 mm coverslide from Cytoo, Inc., France. The micropatterns had surface areas of 800μ^2 or 1600μ^2, respectively. Fifty thousand cells after initial siRNA treatment was placed on the micropatterns for 4-6 h before processing them for immunofluorescence. […]

Test [2] concerns phosphorylated myosin light chain (pMLC). Briefly: Actomyosin cables / pMLC activation after wound scratch. In kind it is cell-based, human. As to conditions: 10 μm Blebbistatin 2 h before scratch. On the procedure: Indicated cells post-manipulation were washed twice with cold Phosphate buffered saline (PBS) and lysed with cold 1% NP-40 lysis buffer supplemented with 1× protease inhibitor cocktail (Roche Applied Biosciences) for 15 mins at 4° C. The cell lysate was centrifuged at 13,000 rpm for 15 min. This was followed by protein estimation using Bradford reagent. Subsequently, […] of total protein was mixed with an equal volume of 2× Laemmli sample buffer and heated at 95° C. for 5 mins. This was followed by resolution with SDS-PAGE gel. The resolved proteins were transferred onto nitrocellulose membrane and blocked in 5% skimmed milk reconstituted in 1×PBS containing 0.1% Tween-20, and probed overnight with the respective primary antibody. The membrane was then washed with 1×PBS supplemented with 0.1% Tween-20: three times at 15 min intervals. This was followed by 1 h incubation in conjugated horseradish peroxidase HRP secondary antibody (Santa Cruz Biotechnology). Post-incubation, the blot was again washed three times as above and then overlaid with enhanced chemiluminescence (ECL) substrate (Pierce/Bio-Rad) and visualized on X-ray film by image processor or digitally by Chemidoc analyzer (Bio-Rad). The density of the various bands was quantified using the Image-J software.
Cells were cultured on eight-well chamber slides or coverslips over-night. Cells were then washed twice with PBS and fixed for 15 min with 4% paraformaldehyde. Subsequently, the cells were permeabilized for 15 min with 0.1% Triton X in Phosphate buffered saline containing 1 mM Ca^+2 and 1 mM Mg^+2 (PBSCM) at room temperature. The permeabilized cells were incubated with indicated antibodies in fluorescent dilution buffer (FDB) for 1-2 h at RT or overnight at 4° C., followed by 5 washes with PBSCM and incubation with secondary antibody; Alexa Fluor (Thermo Fisher Scientific) for 1 h at RT. Slides were again washed five times with PBSCM and mounted with Vectashield medium containing DAPI. The stained cells were then imaged by a Zeiss confocal microscope. The images were processed and analyzed by Zen blue software. Intensity measurements were acquired using tool selection parameter in image analysis within the Zen blue software.
as §1

The next test deals with pMLC. Briefly: Force transmission via ligand conjugated magnetic beads. In kind it is cell-based, human. The settings on record: siAgrin cells. As to the method: The ligands were conjugated to 4.5 μm epoxide paramagnetic beads (Dynabeads M-450 Epoxy, Thermo Fisher Scientific) according to the manufacturer's manual. Briefly, the beads were washed twice in 0.1 M sodium phosphate buffer, pH 7.4. Subsequently. 8×10^7 beads were conjugated to 20 μg sAgrin, BSA and FN per in 0.1 M sodium phosphate buffer at pH 7.4 for 16-18 h at 4° C. with gentle rotation throughout. The degree of protein conjugation to the beads was verified by a reducing SDS-PAGE gel analysis using a subset of ligand conjugated beads. The remaining beads were washed and subsequently stored in 0.1% BSA-phosphate buffered saline (PBS) pH 7.4 at 4° C. They were subsequently suspended in medium and added on the cells for 30 min at 37° C. After a brief wash with PBS to remove excess non-adherent beads, the cells were placed under a permanent neodymium magnet (J Magnetics, USA) at a distance of 6 mm apart for another 30 min that allowed a vertical tensile force in the magnitudes of ˜200 pN on the beads. The cells were then fixed in 4% paraformaldehyde, permeabilized and processed for immunofluorescence.

As to `COC(=O)Nc1ccc2oc3cc(S(=O)(=O)N[C@H](C(=O)O)C(C)C)ccc3c2c1` [MMP408, reference compound], the “migration of sAgrin induced K17 expressing keratinocytes” value in test [1] (5 nM MMP408, soft substrates and normal culture conditions) is reported as “blunted the migration of sAgrin induced K17 expressing keratinocytes”. For the same molecule, in the test on mouse skin explants, the “sAgrin induced K17 expressing migratory outgrowth” value is on record as “abruptly abolished”.
Turning to `Cc1ccc2c(c1)C(=O)C1(O)CCN(c3ccccc3)C1=N2` (centres unmarked) [blebbistatin, reference compound], in test [1] (10 μm Blebbistatin, 18 h post-wounding), the “sAgrin induced migration post-wound injury” value was “abolished the sAgrin induced migration”. Besides, the “sAgrin induced actomyosin cables” value in test [2] is given as “abolished”.

B1: syndecan-4: Syndecan-4 conjugated to magnetic beads (protein, UniProt P31431 19-198, looked up)
Syndecan-4: ESIRETEVIDPQDLLEGRYFSGALPDDEDVVGPGQESDDFELSGSGDLDDLEDSMIGPEVVHPLVPLDNHIPERAGSGSQVPTEPKKLEENEVIPKRISPVEESEDVSNKVSMSSTVQGSNIFERTEVLAALIVGGIVGILFAVFLILLLMYRMKKKDEGSYDLGKKPIYKKAPTNEFYA
modifications: conjugated to magnetic beads
notes: Syndecan-4 conjugated to magnetic beads
On to B1, for which the “rescue of reduced pMLC in Agrin depleted cells by force through ligand beads” value with pMLC is listed as “rather insufficient to rescue myosin mechanotension”.
